Data published in publication PMC4414144, “Plasmin releases the anti-tumor peptide from the NC1 domain of collagen XIX” (Oncotarget, 2015).
“Also recorded” adds a separate entry of the source.

Key:
plasmin [1] = biological target: T1, plasmin (Homo sapiens, UniProt P00747); assay: P36 peptide digestion in vitro by plasmin (HPLC, MALDI-ToF MS); assay type: biochemical; conditions: for Effect on P36 peptide plasmin digestion: 16 h, E:S 1:50, HPLC
T1 construct: purchased Merck, Darmstadt
Procedure: Lyophilized plasmin with a specific activity of 10 U/mg (Merck, Darmstadt, Allemagne) was dissolved in sterile water to a concentration of 1 mg/mL. In control sample, P36 peptide (6.79 × 10^−4 M) was incubated overnight at 37°C in a Tris-HCl buffer (150 mM NaCl, 5 mM CaCl2, 50 mM Tris-HCl, pH 7.5). […] Aliquots were analyzed by HPLC as described below.
Dose-dependent digestion of P36 peptide by plasmin was measured by incubating P36 peptide 16 h at 37°C with different plasmin concentrations. Time-dependent analysis of P36 peptide cleavage by plasmin was obtained by incubating P36 with plasmin (E:S 1:50 at 37°C) during different time. Cleavage of the peptide was monitored by HPLC using method 1.
HPLC samples (20 μL of each sample with 30 μL of 0.1% trifluoroacetic acid) were injected on a Waters Alliance 2695 HPLC system, equipped with a photodiode array 2996 PDA detector, fraction collector III (WFC III) and the Empower^TM chromatography software for data acquisition (Milford, MA, USA). The column used was a EC 250/4 Nucleosil reversed phase (5 μm particle size, 100 Å pore size, 4 × 250 mm) which was protected by a guard column CC 8/4 Nucleosil 300-5 C4 (Macherey-Nagel, Düren, Germany). The injection volume was 20 μL and detection was performed at λ = 214 nm. Eluants were 0.1% trifluoroacetic acid in water (A) and 0.1% trifluoroacetic acid in 80% acetonitrile (B). The analyses followed a linear gradient program with a flow at 0.8 mL/min. Two method conditions were used:
(§1) Solutions of matrix α–cyano-4-hydroxycinnamic acid (CHCA) was prepared as a saturated solution in ACN/water (1/1; v/v) containing 0.1% TFA (10 mg/mL). Samples were prepared at a concentration of 10 pmol/μL in water containing 0.1% TFA. Typically, 1 μL of the matrix was pipetted on the MALDI target plate. Then 1 μL of analyte was added and air-dried for MALDI-ToF MS analysis.
(§2) MS experiments were performed using micromass MALDITM–LR time-of-flight mass spectrometer (Waters MS technologies, Manchester, UK) equipped with a nitrogen UV laser (337 nm wavelength), reflectron optics, a fast dual micro-channel plate (MCP) detector and a high magnification camera system. Positive ion spectra were acquired in reflectron mode. The following voltages were applied: pulse 1940 V, MCP 2380 V, suppression 500, flight tube 12000 V, reflectron 5200 V. A time lag focusing (TLF) delay of 680 ns was used between the time of laser pulse and the application of the accelerating voltage. Samples were analyzed in reflectron acquisition mode in the mass range 550-4000 Da. Mass calibration was performed using a peptide mixture composed of Bradykinin fragment 1–5 (573.31 Da), human Angiotensin II (1046.54 Da), Neurotensin (1672.92 Da), ACTH clip (2465.20 Da), bovine Insulin ß-chain oxidized (3494.65 Da) and bovine Insulin (5730.61 Da).

MMP-9 = assay: P36 peptide cleavage by MMP-9; assay type: biochemical; conditions: preliminary experiments, data not shown
[2] = Intra-chain disulfide bond formation in solution; assay type: physicochemical; conditions: for Time for spontaneous intra-chain disulfide bond formation (C^1123-C^1128): in solution; for Intra-chain disulfide bond formation Cys^1123-Cys^1128: in solution over the time, MALDI-ToF MS
Procedure: as §1, §2

MMP-1 = assay: P36 peptide cleavage by MMP-1; assay type: biochemical; conditions: preliminary experiments, data not shown
MMP-2 = assay: P36 peptide cleavage by MMP-2; assay type: biochemical; conditions: preliminary experiments, data not shown
MT1-MMP = assay: P36 peptide cleavage by MT1-MMP; assay type: biochemical; conditions: preliminary experiments, data not shown
plasmin [3] = biological target: T1, plasmin; assay: Kinetic analysis of P36 peptide cleavage by plasmin (KM, Kcat); assay type: biochemical; conditions: P36 8, 16, 32, 64 nM; 1.25 nM plasmin; 30 min, 37°C; HPLC; double-reciprocal plot
Procedure: Michaelis constant (KM) and first-order rate constant of substrate peptide turnover (Kcat) were obtained by digestion of P36 peptide (8, 16, 32, 64 nM), for 30 min at 37°C in the presence of 1.25 nM plasmin. Cleavage of the peptide was monitored by HPLC. From these measurements, Kcat and KM were calculated using double-reciprocal plot of 1/[S] versus 1/v.

plasmin [4] = assay: P36 peptide digestion in SKMEL28 melanoma cell cultures; assay type: cell-based, human; conditions: MALDI-ToF MS
Procedure: (§3) Human melanoma cell line (SKMEL28) was purchased from the American Type Culture Collection (ATCC, Manassas, VA). Cells were grown in Dulbecco's Modified Eagle's medium (DMEM) supplemented with 10% Fetal Bovine Serum (FBS), 1% penicillin and streptomycin (PenStrep®, Gibco®, France) in Nunclon® 75 cm^2 flasks (Dutscher, Brumath, France) at 37°C in a humid atmosphere (5% CO2, 95% air). Murine melanoma B16F1 cells, were a generous gift of Dr. M. Grégoire (INSERM UMRS 419, Nantes, France). They were grown in RPMI 1640 medium supplemented with 5% FBS in Nunclon 25 cm^2 flasks at 37°C in a humid atmosphere (5% CO2, 95% air). All culture media and reagents were purchased from Life Technologies (Invitrogen, Strasbourg, France).
SKMEL28 were incubated in DMEM with 20 μL plasminogen (40 μg/mL) and/or 20 μL plasmin (10 μg/mL) and/or aprotinin (10^−5 M) and P36 peptide. Samples were analyzed using HPLC and Matrix Assisted Laser Desorption Ionisation – Time of flight protocol (MALDI-ToF) as described below.
siRNA specific to human tPA (FlexiTube GeneSolution for PLAT) was purchased from Qiagen (Courtaboeuf, France). The siRNA target different regions of the tPA mRNA: 1st siRNA target sequence (5′-[…]-3′), 2nd siRNA target sequence (5′-[…]-3′), 3rd siRNA target sequence (5′-[…]-3′) and 4th siRNA target sequence (5′-[…]-3′). Exponentially growing SKMEL28 cells were transfected with siRNA pools (20 nM) using lipofectamine™ 2000. Decrease of tPA mRNA expression was assessed by RT-qPCR at 48 h after transfection. Decrease of tPA protein expression was monitored by zymography and immunocytofluorescence 72 h after siRNA transfection. Cells were subjected to plasminogen treatment for P36 peptide cleavage 24 h after transfection.

SKMEL28 cells = assay: Scratch wound assay; assay type: cell-based, human; conditions: F4 200 μg/mL, p < 0.05 vs control, five experiments
Procedure: as §3
SKMEL28 cells (5 × 10^4 per well) were seeded in 24-well plates and cultivated to confluence in DMEM supplemented with 5% FBS. The cell layer was then wounded with a sterile 100 to 1000 μL pipet tip and re-incubated in fresh culture medium in the absence or presence of F4 peptide. After 24 h, 48 h or 72 h, cells were photographed and the size of the remaining wound measured.

B16F1 cells = assay: In vivo murine melanoma model, tumor growth; parameters: species or system mouse (murine B16F1 melanoma in C57Bl6 mice); conditions: day 15; B16F1 cells pre-incubated 30 min with F4, s.c.; re-injected i.p. day 7 and 14; ten mice; p < 0.05 vs controls
Procedure: as §3
C57Bl6 mice (average body weight: 16–18 g) were purchased from Harlan France (Gannat, France). The in vivo experiments were conducted according to the ethical guidelines of the Centre National de la Recherche Scientifique (CNRS). In vivo melanoma model was previously described (Ramont et al., 2007). Briefly, 2.5 × 10^5 B16F1 cells, pre-incubated (30 min) with either control medium or F4 peptide, were subcutaneously injected into the left side of 10 syngenic C57BL6 mice. Treatments were re-injected intraperitoneally at day 7 and 14. Tumor size was measured regularly.

[5] = system: experimental murine melanoma; conditions: experimental murine melanoma model; ref [26]; cited from earlier work
Description: (§4) Type XIX collagen is one of the minor basement membrane-associated collagens. It was discovered in 1992, isolated from rhabdomyosarcoma cell lines and named collagen Y [16]. This discovery was completed in 1993 by Myers et al who gave it the name of RH collagen. It is a 400 kDa homotrimer, composed by the association of three α1(XIX) chains. Each chain comprises 1142 residues, including six non-collagenous domains (NC1-NC6) separated by five collagenous domains (Col1-Col5). This collagen presents high structural homology with other types of collagens IX, XII, XIV, X ...

tumor cells = conditions: in vitro; ref [25]; cited from earlier work
Description: as §4

tumor angiogenesis = conditions: in vitro and in vivo; ref [26]; cited from earlier work
Description: as §4

plasmin [6] = assay: Plasmin activity measurement in SKMEL28 culture, chromogenic substrate S-2251; assay type: cell-based, human; conditions: SKMEL28 with plasminogen; S-2251 hydrolysis at 405 nm
Procedure: After washing with DPBS, cells were incubated in DMEM with/without 20 μL plasminogen (40 μg/mL) and/or 20 μL plasmin (10 μg/mL) and/or 20 μL plasmin chromogenic substrate (250 μg/mL). Hydrolysis of the S-2251 chromogenic substrate (Chromogenix, distributed by Hyphen Biomed, Neuville sur Oise, France) was measured at 405 nm at different time.

[7] = system: experimental cancer models; conditions: cited from earlier work
Description: The basement membrane is a complex structure mainly composed of laminins, nidogens, heparan sulfate proteoglycans (perlecan and/or agrin), and type IV collagen. More recently, associations between basement membrane and minor collagens such as type XVIII, XV or type XIX were reported and named basement membrane zone. These collagenous components associated with the basement membrane represent a dynamic interface between this structure and the stroma. Basement membrane has long been described as a simple architectural cell support. […] For instance, endostatin, the NC1 domain of type XVIII collagen, is released by many proteases such as MMP-3, 7, 9, 12, 13, 20 [14, 35, 36], or cathepsins B, L, S, V [37, 38, 39]. […] Tumstatin, the NC1 domain of type IV collagen is generated in vivo by MMP-9 [7]. It exerts anti-tumor and anti ...

[8] = E:S 1:50, 37°C, 0, 5, 30, 60 min, HPLC method 1
[9] = SKMEL28, plasminogen + aprotinin (10^−5 M)
[10] = SKMEL28, plasminogen added (20 μL, 40 μg/mL)

T1 sequence (P00747 97-580 partner limits assumed, species assumed): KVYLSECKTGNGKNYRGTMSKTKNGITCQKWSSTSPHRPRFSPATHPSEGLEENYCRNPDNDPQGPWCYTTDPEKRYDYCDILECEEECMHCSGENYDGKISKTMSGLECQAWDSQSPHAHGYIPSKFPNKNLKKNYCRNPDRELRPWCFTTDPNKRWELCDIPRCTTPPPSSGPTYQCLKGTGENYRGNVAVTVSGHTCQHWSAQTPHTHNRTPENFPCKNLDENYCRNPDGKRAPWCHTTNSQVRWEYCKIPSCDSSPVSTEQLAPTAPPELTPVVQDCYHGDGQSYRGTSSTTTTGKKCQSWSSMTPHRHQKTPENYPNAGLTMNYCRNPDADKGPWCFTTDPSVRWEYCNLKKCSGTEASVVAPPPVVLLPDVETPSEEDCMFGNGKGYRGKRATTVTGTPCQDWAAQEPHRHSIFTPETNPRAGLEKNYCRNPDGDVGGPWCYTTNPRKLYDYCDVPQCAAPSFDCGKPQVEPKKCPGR
T1 sequence (P00747 581-810 limits assumed, species assumed): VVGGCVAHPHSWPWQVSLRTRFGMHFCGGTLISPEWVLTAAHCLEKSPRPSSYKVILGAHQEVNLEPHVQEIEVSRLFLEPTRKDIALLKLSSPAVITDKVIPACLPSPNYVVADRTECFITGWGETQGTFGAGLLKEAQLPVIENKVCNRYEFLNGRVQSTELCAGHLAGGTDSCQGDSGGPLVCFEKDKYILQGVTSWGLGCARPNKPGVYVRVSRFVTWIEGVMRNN

## (SPGAPGPQGPPGPSGRC) and the totality of the C-terminal NC1(XIX) domain (NPEDCLYPVSHAHQRTGGN) [P36, synthetic peptide composed of the last 36 residues of the human α1(XIX) chain]
Plasmin [1]; [8]
  Dependence of digestion on time: time-dependent
  Time at which P36 peptide was cleaved by plasmin: ≤ 5 min
Plasmin [1]; E:S 1:50, 16 h, 37°C, Tris-HCl pH 7.5, MALDI-ToF MS
  Plasmin cleavage site: Arg1138-Thr1139; also recorded: Arg1122-Cys1123
Plasmin [1]; plasmin 1:50 to 1:400, overnight/16 h, 37°C, HPLC method 1
  Dependence of digestion on plasmin dose: dose-dependent
MMP-9
  Cleavage of P36 by MMP-9: Neither MMP-1, MMP-2, MMP-9 nor MT1-MMP were capable to cleave the P36 peptide
[2]
  Time for spontaneous intra-chain disulfide bond formation (C^1123-C^1128): less than 1 h
  Intra-chain disulfide bond formation Cys^1123-Cys^1128: formed an intra-chain disulfide-bond
MMP-1
  Cleavage of P36 by MMP-1: Neither MMP-1, MMP-2, MMP-9 nor MT1-MMP were capable to cleave the P36 peptide
MMP-2
  Cleavage of P36 by MMP-2: Neither MMP-1, MMP-2, MMP-9 nor MT1-MMP were capable to cleave the P36 peptide
MT1-MMP
  Cleavage of P36 by MT1-MMP: Neither MMP-1, MMP-2, MMP-9 nor MT1-MMP were capable to cleave the P36 peptide
Plasmin [3]
  Kcat: 0.077 s⁻¹
Plasmin [4]; SKMEL28, no added plasminogen
  Release of fragments / cleavage of P36 in cell culture: no cleavage of P36 peptide occurred
Plasmin [4]; [9]
  Cleavage of P36 in cell culture in presence of aprotinin: no cleavage of P36 occurred
Plasmin [4]; [10]
  Release of fragments / cleavage of P36 in cell culture: P36 peptide disappeared

## CNPEDCLYPVSHAHQR [F4]
SKMEL28 cells; 24 h
  Change in wound closure: −53%
SKMEL28 cells; 48 h
  Change in wound closure: −39%
SKMEL28 cells; 72 h
  Change in wound closure: −36%
[2]
  Time for spontaneous intra-chain disulfide bond formation (C^1123-C^1128): less than 1 h
  Intra-chain disulfide bond formation Cys^1123-Cys^1128: formed an intra-chain disulfide-bond
B16F1 cells
  Change in tumor growth (tumor volume): −30%
Plasmin [4]; SKMEL28, no added plasminogen
  Release of fragments / cleavage of P36 in cell culture: no release
Plasmin [4]; [10]
  Release of fragments / cleavage of P36 in cell culture: released

## NPEDCLYPVSHAHQRTGGN [NC1(XIX), C-terminal NC1(XIX) domain (…), 19 amino acids]
[5]
  Inhibition of in vivo tumor growth: strong inhibition
Tumor cells
  Tumor cell migration and invasion: inhibited the migration and invasion capacities of tumor cells in vitro
Tumor angiogenesis
  Tumor angiogenesis: inhibited tumor angiogenesis in vitro and in vivo

## SPGAPGPQGPPGPSGR [F2, … Col1 domain of P36 peptide]
Plasmin [4]; SKMEL28, no added plasminogen
  Release of fragments / cleavage of P36 in cell culture: no release
Plasmin [4]; [10]
  Release of fragments / cleavage of P36 in cell culture: released

## aprotinin [reference compound]
Plasmin [1]; aprotinin 10^−5 M, 37°C
  Effect on P36 peptide plasmin digestion: completely abolished
Plasmin [1]; aprotinin 10^−6 M, 37°C
  Effect on P36 peptide plasmin digestion: completely abolished
Plasmin [1]; aprotinin 10^−7 M, 37°C
  Effect on P36 peptide plasmin digestion: not sufficient to prevent it
Plasmin [6]
  Inhibition of plasmin activity: completely inhibited plasmin activity
Plasmin [4]; [9]
  Effect of aprotinin on release of F2, F3 and F4: abolished this release

## endostatin
[7]; number of experimental cancer models, ref [7], [43]
  Anti-tumor properties: exerts significant anti-tumor properties
[7]; ref [38]
  Metastatic potential of cells: reduces metastatic potential of cells
